Like-named read-outs stand apart in the source and are kept apart here.
Tests used:
[1] = test system: macrophage and T cells dual tropic (89.6); assay: P24 quantification (P24 EIA) in infected PBMCs, 89.6; type: cell-based, HIV-1; settings: PBMC; for concentrations of the viral P24 antigen, 89.6(+): (+) original concentration of compound maintained after washing; for concentrations of the viral P24 antigen, 89.6(-): (-) compound removed after washing
Description: (§1) PBMCs were treated with various concentrations of CAPE, MC and PEDMC provided in Example 2 and simultaneously infected with […] and macrophage and T cells dual tropic (89.6) HIV-1 isolates. The next day, the added compounds were removed by washing methods or maintained at the same concentration. Samples were divided into two groups and the upernatants of the culture medium were collected at the 3 and 7 days after infection, respectively. The use of P24 EIA Reagent Kit of Abbott Laboratory compares the concentrations of viral P24 antigen with or without the compounds tested.

cells = assay: Cellular activities in microculture tetrazolium (MTT) tests; type: cell-based
Description: The cellular activities were tested according to method as described in Alley M.C. et al, Cancer Res. 1988; 48(3):589-601. The principle of the method resides in that live cells can reduce MTT., i.e., 3-[4,5-dimethylthiazol-2-yl]-2,5-diphenyltetrazolium bromide)(tetrazolium salt) to formazan crystal through the dehydrogenase metabolism in Mitochondria. The crystal was dissolved in propanol and OD values were determined at 570 nm. The OD values can indicate the numbers of the live cells. The growth conditions of the cells were observed firstly. The cells were diluted to 2x10^4 cells/ml. 100µl sample taken by micropipet was placed in a 96-well plate. The plate was cultured for 24 hours as 37°C and 100µl of the compounds to be tested, which were prepared in medium, were added in each well. […] After culture for 4 hours, supernatant liquid was absorbed and 100 µl DMSO and 10µl /well was added. Each well was homogeneously mixed. The absorbance was determined at 570 nm.

[2] = test system: various HIV isolates (NL-43, JRCSF or 89.6); assay: P24 quantification, summary statements over all isolates; type: cell-based, HIV-1
Description: as §1

T cells-tropic (JRCSF) = assay: P24 quantification (P24 EIA) in infected PBMCs, JRCSF; type: cell-based, HIV-1; settings: PBMC; for concentrations of the viral P24 antigen, JRCSF(+): (+) original concentration of compound maintained after washing; for concentrations of the viral P24 antigen, JRCSF(-): (-) compound removed after washing
Description: as §1

[3] = test system: macrophage-tropic (NL-43); assay: P24 quantification (P24 EIA) in infected PBMCs, NL-43; type: cell-based, HIV-1; settings: PBMC; for concentrations of the viral P24 antigen, NL43(+): (+) original concentration of compound maintained after washing; for concentrations of the viral P24 antigen, NL43(-): (-) compound removed after washing
Description: as §1

[4] = test system: Peripheral Blood Mononuclear Cells (PBMC); settings: for The numbers of dead cells in 400 cells' count / % viability: 48 hours; for The numbers of dead cells in 400 cells' count: control 9 dead cells; for % viability: viable cells versus control (391);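 as to all read-outs here: trypan blue dye exclusion, cells stained and counted from quadruplicate dishes, DMSO vehicle kept under 0.5%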
Description: Viability of the cells was assayed by the trypan blue dye exclusion method. […] The concentration of DMSO was adjusted to be less than 0.5%. Cells from quadruplicated dishes were washed once with Hank's Balanced Salt Solution (HBSS). According to the process, the floating dead cells will be separated from the live monolayer cells. Then the cells were stained with trypan blue and counted. The total number of viable cells in the control group was considered as 100% viability and the agent-treated cells were compared with the control group for the determination of % viability. The % viability of agent-treated cells was calculated from the total number of viable cells in the control group and in the agent-treated group.

O=C(/C=C/c1ccc(O)c(O)c1)OCCc1ccccc1 [CAPE, caffeic acid phenethyl ester]
concentrations of the viral P24 antigen, 89.6(+) ([1]; 0.1 µM): 1000 unit | concentrations of the viral P24 antigen, 89.6(-) ([1]; 0.1 µM): 1000 unit | concentrations of the viral P24 antigen, 89.6(+) ([1]; 0.5 µM): 899.22 unit | concentrations of the viral P24 antigen, 89.6(-) ([1]; 0.5 µM): 949.75 unit | concentrations of the viral P24 antigen, 89.6(+) ([1]; 1 µM): 643.71 unit | concentrations of the viral P24 antigen, 89.6(-) ([1]; 1 µM): 1000 unit | concentrations of the viral P24 antigen, 89.6(+) ([1]; 5 µM): 243.87 unit | concentrations of the viral P24 antigen, 89.6(-) ([1]; 5 µM): 280.51 unit | concentrations of the viral P24 antigen, 89.6(+) ([1]; 10 µM): 230.32 unit | concentrations of the viral P24 antigen, 89.6(-) ([1]; 10 µM): 255.21 unit | concentrations of the viral P24 antigen, 89.6(+) ([1]; 25 µM): 0 unit | concentrations of the viral P24 antigen, 89.6(-) ([1]; 25 µM): 182.44 unit | concentrations of the viral P24 antigen, 89.6(+) ([1]; 50 µM): 0 unit | concentrations of the viral P24 antigen, 89.6(-) ([1]; 50 µM): 243.53 unit | concentrations of the viral P24 antigen, 89.6(+) ([1]; 100 µM): 0 unit | concentrations of the viral P24 antigen, 89.6(-) ([1]; 100 µM): 113.2 unit | concentrations of the viral P24 antigen, 89.6(+) ([1]; 200 µM): 0 unit | concentrations of the viral P24 antigen, 89.6(-) ([1]; 200 µM): 0 unit | concentrations of the viral P24 antigen, 89.6(+) ([1]; 400 µM): 0 unit | concentrations of the viral P24 antigen, 89.6(-) ([1]; 400 µM): 0 unit | MTT 24h, cellular activities (cells; 0.1 µM): 97.49 relative percentage | MTT 48h, cellular activities (cells; 0.1 µM): 87.49 relative percentage | MTT 24h, cellular activities (cells; 0.5 µM): 104.67 relative percentage | MTT 48h, cellular activities (cells; 0.5 µM): 97.54 relative percentage | MTT 24h, cellular activities (cells; 1 µM): 109.25 relative percentage | MTT 48h, cellular activities (cells; 1 µM): 104.18 relative percentage | MTT 24h, cellular activities (cells; 5 µM): 102.41 relative percentage | MTT 48h, cellular activities (cells; 5 µM): 99.74 relative percentage | MTT 24h, cellular activities (cells; 10 µM): 93.07 relative percentage | MTT 48h, cellular activities (cells; 10 µM): 94.76 relative percentage | MTT 24h, cellular activities (cells; 25 µM): 98.65 relative percentage | MTT 48h, cellular activities (cells; 25 µM): 96.92 relative percentage | MTT 24h, cellular activities (cells; 50 µM): 95.49 relative percentage | MTT 48h, cellular activities (cells; 50 µM): 96.42 relative percentage | MTT 24h, cellular activities (cells; 100 µM): 96.15 relative percentage | MTT 48h, cellular activities (cells; 100 µM): 94.02 relative percentage | MTT 24h, cellular activities (cells; 200 µM): 106.8 relative percentage | MTT 48h, cellular activities (cells; 200 µM): 98.6 relative percentage | MTT 24h, cellular activities (cells; 400 µM): 108.62 relative percentage | MTT 48h, cellular activities (cells; 400 µM): 98.9 relative percentage | cellular activities in MTT tests (result in words) (cells; Figures 1 and 2, 24 and 48 hours): no substantial effects | viral replications (result in words) ([2]; Figures 3-5, PBMC infected with NL-43, JRCSF or 89.6): significantly inhibited viral replications | inhibit viral replication ([2]; at the concentration of 100 µM or less, various HIV isolates): 100% | concentrations of the viral P24 antigen, JRCSF(+) (T cells-tropic (JRCSF); 0.1 µM): 1000 unit | concentrations of the viral P24 antigen, JRCSF(-) (T cells-tropic (JRCSF); 0.1 µM): 1000 unit | concentrations of the viral P24 antigen, JRCSF(+) (T cells-tropic (JRCSF); 0.5 µM): 1000 unit | concentrations of the viral P24 antigen, JRCSF(-) (T cells-tropic (JRCSF); 0.5 µM): 1000 unit | concentrations of the viral P24 antigen, JRCSF(+) (T cells-tropic (JRCSF); 1 µM): 1000 unit | concentrations of the viral P24 antigen, JRCSF(-) (T cells-tropic (JRCSF); 1 µM): 1000 unit | concentrations of the viral P24 antigen, JRCSF(+) (T cells-tropic (JRCSF); 5 µM): 965.62 unit | concentrations of the viral P24 antigen, JRCSF(-) (T cells-tropic (JRCSF); 5 µM): 1000 unit | concentrations of the viral P24 antigen, JRCSF(+) (T cells-tropic (JRCSF); 10 µM): 642.72 unit | concentrations of the viral P24 antigen, JRCSF(-) (T cells-tropic (JRCSF); 10 µM): 34.42 unit | concentrations of the viral P24 antigen, JRCSF(+) (T cells-tropic (JRCSF); 25 µM): 0 unit | concentrations of the viral P24 antigen, JRCSF(-) (T cells-tropic (JRCSF); 25 µM): 0 unit | concentrations of the viral P24 antigen, JRCSF(+) (T cells-tropic (JRCSF); 50 µM): 0 unit | concentrations of the viral P24 antigen, JRCSF(-) (T cells-tropic (JRCSF); 50 µM): 0 unit | concentrations of the viral P24 antigen, JRCSF(+) (T cells-tropic (JRCSF); 100 µM): 0 unit | concentrations of the viral P24 antigen, JRCSF(-) (T cells-tropic (JRCSF); 100 µM): 0 unit | concentrations of the viral P24 antigen, JRCSF(+) (T cells-tropic (JRCSF); 200 µM): 0 unit | concentrations of the viral P24 antigen, JRCSF(-) (T cells-tropic (JRCSF); 200 µM): 0 unit | concentrations of the viral P24 antigen, JRCSF(+) (T cells-tropic (JRCSF); 400 µM): 0 unit | concentrations of the viral P24 antigen, JRCSF(-) (T cells-tropic (JRCSF); 400 µM): 0 unit | concentrations of the viral P24 antigen, NL43(+) ([3]; 0.1 µM): 1000 unit | concentrations of the viral P24 antigen, NL43(-) ([3]; 0.1 µM): 1000 unit | concentrations of the viral P24 antigen, NL43(+) ([3]; 0.5 µM): 1000 unit | concentrations of the viral P24 antigen, NL43(-) ([3]; 0.5 µM): 1000 unit | concentrations of the viral P24 antigen, NL43(+) ([3]; 1 µM): 1000 unit | concentrations of the viral P24 antigen, NL43(-) ([3]; 1 µM): 1000 unit | concentrations of the viral P24 antigen, NL43(+) ([3]; 5 µM): 1000 unit | concentrations of the viral P24 antigen, NL43(-) ([3]; 5 µM): 1000 unit | concentrations of the viral P24 antigen, NL43(+) ([3]; 10 µM): 990.64 unit | concentrations of the viral P24 antigen, NL43(-) ([3]; 10 µM): 1000 unit | concentrations of the viral P24 antigen, NL43(+) ([3]; 25 µM): 975.64 unit | concentrations of the viral P24 antigen, NL43(-) ([3]; 25 µM): 988.28 unit | concentrations of the viral P24 antigen, NL43(+) ([3]; 50 µM): 166.12 unit | concentrations of the viral P24 antigen, NL43(-) ([3]; 50 µM): 865.44 unit | concentrations of the viral P24 antigen, NL43(+) ([3]; 100 µM): 0 unit | concentrations of the viral P24 antigen, NL43(-) ([3]; 100 µM): 62.26 unit | concentrations of the viral P24 antigen, NL43(+) ([3]; 200 µM): 0 unit | concentrations of the viral P24 antigen, NL43(-) ([3]; 200 µM): 0 unit | concentrations of the viral P24 antigen, NL43(+) ([3]; 400 µM): 0 unit | concentrations of the viral P24 antigen, NL43(-) ([3]; 400 µM): 0 unit | The numbers of dead cells in 400 cells' count ([4]; 0.1 µM): 11 | % viability ([4]; 0.1 µM): 389/391 (99.5%) | The numbers of dead cells in 400 cells' count ([4]; 0.5 µM): 9 | % viability ([4]; 0.5 µM): 391/391 (100%) | The numbers of dead cells in 400 cells' count ([4]; 1 µM): 7 | % viability ([4]; 1 µM): 393/391 (100.5%) | The numbers of dead cells in 400 cells' count ([4]; 5 µM): 10 | % viability ([4]; 5 µM): 390/391 (99.7%) | The numbers of dead cells in 400 cells' count ([4]; 10 µM): 10 | % viability ([4]; 10 µM): 390/391 (99.7%) | The numbers of dead cells in 400 cells' count ([4]; 25 µM): 5 | % viability ([4]; 25 µM): 395/391 (101%) | The numbers of dead cells in 400 cells' count ([4]; 50 µM): 12 | % viability ([4]; 50 µM): 388/391 (99.2%) | The numbers of dead cells in 400 cells' count ([4]; 100 µM): 11 | % viability ([4]; 100 µM): 389/391 (99.5%) | The numbers of dead cells in 400 cells' count ([4]; 200 µM): 7 | % viability ([4]; 200 µM): 393/391 (100.5%) | The numbers of dead cells in 400 cells' count ([4]; 400 µM): 8 | % viability ([4]; 400 µM): 392/391 (100.3%) | viabilities of PBMC under high-dose versus low-dose treatments (result in words) ([4]; high dose up to 400 µM compared with 0.1-10 µM): no substantial differences
